Assay results as given in the NIST ThermoML archive (doi:10.1016/j.tca.2018.05.007).
“And” between values parts separate entries of the source, which are not always exact repeats. Equal values may be shown once.

Conditions: Liquid, Rate of evaporation

OCCN(CCO)CCO [triethanolamine]
Conditions	vapor or sublimation pressure
365 K	0.000835 kPa
375 K	0.002129 kPa and 0.002041 kPa
385 K	0.005005 kPa and 0.004526 kPa
395 K	0.01093 kPa and 0.009521 kPa
400 K	0.01404 kPa
405 K	0.02229 kPa and 0.01908 kPa
410 K	0.02726 kPa
415 K	0.04274 kPa and 0.03658 kPa and 0.03733 kPa
420 K	0.05078 kPa
425 K	0.07739 kPa and 0.06729 kPa and 0.06993 kPa
430 K	0.09108 kPa and 0.0987 kPa and 0.0881 kPa
435 K	0.133 kPa and 0.1191 kPa and 0.1259 kPa
440 K	0.1577 kPa and 0.1715 kPa and 0.1578 kPa
445 K	0.2176 kPa and 0.2036 kPa and 0.2184 kPa
450 K	0.2644 kPa and 0.2908 kPa and 0.2755 kPa
455 K	0.3407 kPa and 0.3368 kPa and 0.3662 kPa
460 K	0.4694 kPa [middle of 4 runs]
465 K	0.5116 kPa and 0.5424 kPa and 0.5946 kPa
470 K	0.7812 kPa and 0.7818 kPa
475 K	0.9374 kPa
480 K	1.165 kPa and 1.242 kPa and 1.275 kPa
490 K	1.936 kPa and 2.038 kPa
500 K	3.196 kPa
510 K	4.926 kPa
515 K	6.077 kPa
